Reference: ChEMBL document CHEMBL4342443, “Phloroglucinol Benzophenones and Xanthones from the Leaves of Garcinia cowa and Their Nitric Oxide Production and α-Glucosidase Inhibitory Activities” (J Nat Prod, 2020)
Active and inactive are the calls of the source. The rule behind the calls is not given here.

Key:
[1] = test system: RAW264.7; experiment: Inhibition of NO production in LPS-stimulated mouse RAW264.7 cells incubated for 24 hrs by Griess reagent-based assay; type: functional, cell-based; conditions: RAW264.7, 24 h
[2] = target: T1, Alpha glucosidase (Homo sapiens, UniProt O43451+P10253+P14410+Q2M2H8); experiment: Inhibition of alpha-glucosidase (unknown origin) using p-nitrophenyl alpha-D-glucoside as substrate preincubated for 0.5 hrs followed substrate addition and measured after 1 hr by colorimetric method; type: protein assay
[3] = test system: RAW264.7; experiment: Inhibition of NO production in LPS-stimulated mouse RAW264.7 cells at > 100 uM incubated for 24 hrs by Griess reagent-based assay; type: functional, cell-based
[4] = target: T1, Alpha glucosidase; experiment: Inhibition of alpha-glucosidase (unknown origin) at > 100 uM using p-nitrophenyl alpha-D-glucoside as substrate preincubated for 0.5 hrs followed substrate addition and measured after 1 hr by colorimetric method; type: protein assay

COc1c(O)cc2oc3cc(O)c(C/C=C(\C)CO)c(O)c3c(=O)c2c1C/C=C(\C)CCC=C(C)C
IC50 [1]: 13.4 µM | IC50 [2]: 28.7 µM

CC(C)=CCC/C(C)=C/CC/C(C)=C/CCC(C)(O)CCc1c(O)c(O)cc2oc3cc(O)cc(O)c3c(=O)c12 (racemic)
IC50 [1]: 5.8 µM | IC50 [2]: 15.4 µM

CC1(C)CCc2c(cc3oc4c(O)c(O)ccc4c(=O)c3c2O)O1
inhibition [3]: inactive | inhibition [4]: inactive

COc1c(O)cc2oc3cc4c(c(O)c3c(=O)c2c1CC=C(C)C)C=CC(C)(C)O4 [MANGOSTANIN]
IC50 [1]: 18.6 µM | IC50 [2]: 11.4 µM

CC(C)=CCC/C(C)=C/CC/C(C)=C/Cc1c(O)c(O)cc2oc3cc(O)cc(O)c3c(=O)c12
inhibition [3]: inactive | IC50 [2]: 76.2 µM

CC(C)=CC[C@@H]1C[C@@]23CCC(C)(C)OC2=C(C(=O)c2ccccc2)C(=O)[C@H](C3=O)[C@@]1(C)CCCC(C)(C)O
IC50 [1]: 11 µM | inhibition [4]: inactive

COc1c(O)cc2oc3cc(O)c(CCC(C)(C)O)c(O)c3c(=O)c2c1CC=C(C)C
IC50 [1]: 5.4 µM | inhibition [4]: inactive

CC(C)=CCC/C(C)=C/Cc1c(O)cc2oc3c(O)cccc3c(=O)c2c1O
inhibition [3]: inactive | inhibition [4]: inactive

N=C(N)NN [PIMAGEDINE]
IC50 [1]: 19.9 µM

COc1c(O)cc2oc3cc(O)c(CC=C(C)C)c(O)c3c(=O)c2c1C/C=C(\C)CCC=C(C)C [COWANIN]
inhibition [3]: inactive | IC50 [2]: 37.4 µM

CC(C)=CCC/C(C)=C/CCC(C)(O)CCc1c(O)c(O)cc2oc3cc(O)cc(O)c3c(=O)c12 (racemic)
IC50 [1]: 7.7 µM | IC50 [2]: 25.4 µM

CC(C)(O)CCC[C@@]1(C)[C@H](CCC(C)(C)O)C[C@@]23CCC(C)(C)OC2=C(C(=O)c2ccccc2)C(=O)[C@@H]1C3=O
inhibition [3]: inactive | inhibition [4]: inactive

COc1cc2oc3cc(O)c(OC)c(CC=C(C)C)c3c(=O)c2c(O)c1CC=C(C)C
inhibition [3]: inactive | IC50 [2]: 22.6 µM
